From patent publication US5565433A, “Sulfated β-glycolipid derivatives as cell adhesion inhibitors” (Bristol-Myers Squibb Company, priority 1996, dated 1996) come the findings set out here.

The target in assay [1] is T1, P-selectin (Homo sapiens, UniProt P16109).
T1 construct: consists of the human lectin domain, the EGF domain, and two complement repeats of the human selectins; made in house
Kind of assay: HL-60 Cell Binding to P-selectin Rg. The class given is cell-based. The note with it: HL-60 cells binding to P-selectin Rg coated wells. The protocol: 2. HL-60 Cell Binding to P- and E-Selectin RG
Receptor globulin (Rg) Construction
The chimeric P-and E-selectin receptor globulin (Rg) consists of the human lectin domain, the EGF domain, and two complement repeats of the human selectins fused to the hinge, CH1 and CH2 domains of human IgG1. These proteins were prepared as described by Aruffo, et al., Cell (1991) 67: 35-44; Walz, et al., Science (1990) 250, 1132-1135.
Cell binding assay for Rg
The HL-60 cell line, obtained from the American Type Culture Collection, ATCC No. CCL240, was employed to investigate P-selectin Rg binding. Assays were done in 96-well tissue culture dishes. The wells were first coated with 0.5 ug goat anti-human Fc antiserum overnight, and nonspecific binding sites were blocked by incubation of the wells with 1% nonfat dry milk in phosphate buffered saline (PBS containing 0.9 mM CaCl2 and 0.8 mM MgSO4) for 30 minutes. The Rg was then bound to the anti Fc-coated wells by incubating 50 ng in 50 ul of PBS for two hours. Cells, washed twice and resuspended in PBS to remove traces of medium components, were labeled with 10 uM calcein acetoxy methyl ester for 30 minutes at 3×10^7 cells per ml at room temperature. Serum-containing medium (RPMI with 20% fetal calf serum) was added, and the cells washed, followed by resuspension in PBS and a further spin. The labeled cells, resuspended in PBS, were added to twice washed Rg-containing wells at 200,000 per well. Following a 30 minute incubation with slow shaking, the wells were aspirated and washed three times with PBS to remove unbound cells. To certain wells were added known numbers of cells for determination of a standard curve of fluorescent units per cell. The fluorescence on the plate was quantitated using a fluorescent plate reader. Following subtraction of a blank representing the binding of cells to non-Rg containing wells (<5000 cells), the specific binding to P- or E- selectin was determined.
Inhibitors of cell binding
Test compounds were prepared by dissolution to a final concentration of 20 mg/ml in dimethyl sulfoxide (DMSO), diluted in PBS to 2 mg/ml, and briefly sonicated prior to use. The Rg coated wells were preincubated at room temperature for 15 minutes with the inhibitor, and 200,000 cells were added to yield the final indicated inhibitor concentration in 160 ul of PBS. The data is obtained as percent inhibition of specific binding: [formula] and a plot of dose vs. percent inhibition of Rg binding is generated in which IC50 (μM) is calculated and reported in Table 1.

For assay [2], the target named is T1, P-selectin. Kind of assay: P-Selectin Adhesion Receptor Binding: cell-free ELISA, inhibition of P-selectin binding to immobilized sulfatides. The note with it: immobilized sulfatide, pH 8.0. The text has this:
1. P-Selectin Adhesion Receptor Binding
P-selectin (GMP140, granule membrane protein-140, PADGEM, or CD62) is a calcium-dependent transmembrane protein found in alpha granules of endothelial cells and platelets. It is an inducible selectin produced on activated endothelium and platelets which recognize alpha(2-3)sialylated and alpha(1-3)fucosylated lactosaminoglycans which include the sequence, Lewis x (Zhou et al., J. Cell. Biol., (1991) 115 (2): 557-564) and sulfatides (3-sulfated galactosyl ceramides, Aruffo, et al., Cell (1991) 67: 35-44). P-selectin may be responsible for the initial adhesion events between endothelium and neutrophils as evidenced by leukocyte rolling induced by P-selectin in flow cells (Lawrence, M., and T. Springer, Cell (1991) 65: 859-873).
Based on the availability of soluble forms of P-selectin prepared as described by Aruffo, A., et al., Cell, 67, 35-44 (1991), a binding ELISA based assay modified from Foxall, et al., J., Cell Biol., 117, 895-902 (1992) was developed to measure inhibitors of P-selectin binding to immobilized sulfatides. Such inhibitors were tested in the assay described below.
0.1 ml of sulfatide (SIGMA) or lysosulfatide (SIGMA) each at 1 μg/ml in MeOH were added to the wells of a 96-well ELISA plate (ProBind, Falcon) and allowed to dry overnight at room temperature. The next day the antigen coated plates were blocked for 1.5 hours at room temperature with 5% BSA (ICN) in buffer containing 20mM Hepes and 0.15 M NaCl, pH 8.0. Wild type P-selectin and mutants thereof were first mixed with HRP-conjugated goat anti-human IgG (Fisher Scientific), serially diluted and then incubated for 30 minutes at 37° C. in buffer containing 20 mM Hepes, 0.15 M NaCl, 1% BSA and 0.8 mM CaCl2, pH 8.0 prior to addition to the BSA blocked plates. Following the 30 minute preincubation, the fusion protein-HRP conjugate immunocomplexes were incubated on the blocked antigen coated plates for 45 minutes at 37° C. in the presence or absence of the test compounds and then washed to remove any unbound proteins. Bound complexes were detected by addition of substrate buffer (95 mM NaOAc.3H2 O, 5 mM citric acid monohydrate, 1.4 mM urea/H2O2) containing 3, 3', 5, 5' Tetramethylbenzidine (SIGMA). Reactions were stopped by the addition of 3N sulfuric acid and the absorbance read on an ELISA reader at dual wavelengths 450 and 630 nm. The efficacy of these compounds was compared to that of sulfatide (positive control) or to lysosulfatide (negative control). The data is obtained as percent inhibition of specific binding [formula] and a plot of dose vs. percent inhibition of Rg binding is generated in which IC50 (μM) is calculated and reported as cell free data in Table 1.

T1 sequence (P16109 with tags, fused parts or gaps limits assumed): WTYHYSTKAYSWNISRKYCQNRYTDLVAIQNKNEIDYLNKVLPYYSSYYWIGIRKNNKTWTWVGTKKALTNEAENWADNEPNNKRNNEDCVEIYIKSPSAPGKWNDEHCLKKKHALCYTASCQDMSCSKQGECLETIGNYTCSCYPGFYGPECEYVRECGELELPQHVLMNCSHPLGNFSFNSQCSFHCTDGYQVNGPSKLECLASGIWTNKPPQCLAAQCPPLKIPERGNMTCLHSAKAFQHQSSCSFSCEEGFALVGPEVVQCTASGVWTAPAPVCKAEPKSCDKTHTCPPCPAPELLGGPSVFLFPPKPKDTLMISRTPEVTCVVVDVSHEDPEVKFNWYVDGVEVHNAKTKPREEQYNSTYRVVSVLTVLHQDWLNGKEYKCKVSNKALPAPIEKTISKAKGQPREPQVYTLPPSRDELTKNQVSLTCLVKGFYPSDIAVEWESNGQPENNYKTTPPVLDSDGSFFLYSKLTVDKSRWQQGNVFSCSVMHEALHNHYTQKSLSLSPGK

For `CCCCCCCCCCCCC/C=C/[C@@H](O)[C@H](CO[C@@H]1O[C@H](COS(=O)(=O)O)[C@H](OS(=O)(=O)O)[C@H](O)[C@H]1O)NC(=O)CCCCCCCCCCCCCCC` [Example 2, (2S,3R,4E)-3-Hydroxy-2-hexadecanoylamino-1-[4,6-di-O-(sodiumoxysulfonyl)-β-D-galactopyranosyloxy]-4-octadecene], the concentration for half-maximal inhibition (IC50) (in general, the midpoint of a concentration-inhibition curve) in assay [1] turned out to be 39 µM; in assay [2], 1.7 µM.

Take `CCCCCCCC/C=C\CCCCCCCCCCCCCC(=O)N[C@@H](CO[C@@H]1O[C@H](COS(=O)(=O)O)[C@H](OC(=O)c2ccccc2)[C@H](OC(=O)c2ccccc2)[C@H]1OS(=O)(=O)O)[C@@H](/C=C/CCCCCCCCCCCCC)OC(=O)c1ccccc1` [Example 7, (2S,3R,4E)-3-Benzoyloxy-1-[3,4-di-O-benzoyl-2,6-di-O-(sodiumoxysulfonyl)-β-D-galactopyranosyloxy]-2-(cis-15-tetracosenoylamino)-4-octadecene]: the IC50 in assay [1] amounted to 11 µM; in assay [2], 1 µM.
